Experimental data as given in patent US4684664A, “Derivatives of β-(4-isocyano-1,2,3,4-diepoxycyclopentyl) acrylic acid” (Kureha Kagaku Kogyo Kabushiki Kaisha, priority 1984, dated 1987).
Values after ≈ are worked out from the molar mass of the structure shown.

Assays:
Assay type in all cases: cell-based
[1] = test system: Staphylococcus aureus FDA 209PJc-1; experiment: Antibacterial activity, agar-dilution MIC, organism No. 1; details: Staphylococcus aureus, FDA209PJC1; Organism No. 1, bouillon-agar; read-out: Minimum Inhibitory Concentration
How it was run: (§1)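 Values come from agar-dilution plates prepared with bouillon agar; they represent the least specimen concentration (μg/ml of medium) giving inhibition.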

[2] = test system: Staphylococcus aureus Terajima; experiment: Antibacterial activity, agar-dilution MIC, organism No. 2; details: Staphylococcus aureus; Organism No. 2, bouillon-agar; read-out: Minimum Inhibitory Concentration
How it was run: as §1

[3] = test system: Staphylococcus aureus MS 353; experiment: Antibacterial activity, agar-dilution MIC, organism No. 3; details: Staphylococcus aureus, MS353; Organism No. 3, bouillon-agar; read-out: Minimum Inhibitory Concentration
How it was run: as §1

[4] = test system: Streptococcus pyogenes Cook; experiment: Antibacterial activity, agar-dilution MIC, organism No. 4; details: Streptococcus pyogenes; Organism No. 4, bouillon-agar; read-out: Minimum Inhibitory Concentration
How it was run: as §1

[5] = test system: Escherichia coli NIHJ-JC-2; experiment: Antibacterial activity, agar-dilution MIC, organism No. 5; details: Escherichia coli, NIHJJC2; Organism No. 5, bouillon-agar; read-out: Minimum Inhibitory Concentration
How it was run: as §1

[6] = test system: Escherichia coli K12 C600 IAM 1264; experiment: Antibacterial activity, agar-dilution MIC, organism No. 6; details: Escherichia coli, IAM1264; Organism No. 6, bouillon-agar; read-out: Minimum Inhibitory Concentration
How it was run: as §1

[7] = test system: Klebsiella pneumoniae PCI-602; experiment: Antibacterial activity, agar-dilution MIC, organism No. 7; details: Klebsiella pneumoniae, PCI602; Organism No. 7, bouillon-agar; read-out: Minimum Inhibitory Concentration
How it was run: as §1

[8] = test system: Salmonella typhimurium IID 971; experiment: Antibacterial activity, agar-dilution MIC, organism No. 8; details: Salmonella enterica; Organism No. 8, bouillon-agar; read-out: Minimum Inhibitory Concentration
How it was run: as §1

[9] = test system: Salmonella typhi 901; experiment: Antibacterial activity, agar-dilution MIC, organism No. 9; details: Salmonella enterica, TYPHI, read-out: Minimum Inhibitory Concentration
How it was run: as §1

[10] = test system: Salmonella paratyphi-A 1015; experiment: Antibacterial activity, agar-dilution MIC, organism No. 10; details: Salmonella enterica, PARATYPHI, read-out: Minimum Inhibitory Concentration
How it was run: as §1

[11] = test system: Salmonella shottmuelleri 8006; experiment: Antibacterial activity, agar-dilution MIC, organism No. 11; details: Salmonella, 8006; Organism No. 11, bouillon-agar; read-out: Minimum Inhibitory Concentration
How it was run: as §1

[12] = test system: Salmonella enteritidis G 14; experiment: Antibacterial activity, agar-dilution MIC, organism No. 12; details: Salmonella enterica, ENTERITIDIS; Organism No. 12, bouillon-agar; read-out: Minimum Inhibitory Concentration
How it was run: as §1

[13] = test system: Serratia marcescens IAM 1184; experiment: Antibacterial activity, agar-dilution MIC, organism No. 13; details: Serratia marcescens, IAM1184; Organism No. 13, bouillon-agar; read-out: Minimum Inhibitory Concentration
How it was run: as §1

[14] = test system: Bacillus subtilis ATCC 6633; experiment: Antibacterial activity, agar-dilution MIC, organism No. 14; details: Bacillus subtilis, ATCC6633; Organism No. 14, bouillon-agar; read-out: Minimum Inhibitory Concentration
How it was run: as §1

[15] = test system: Pseudomonas aeruginosa IFO 3445; experiment: Antibacterial activity, agar-dilution MIC, organism No. 15; details: Pseudomonas aeruginosa, IFO3445; Organism No. 15, bouillon-agar; read-out: Minimum Inhibitory Concentration
How it was run: as §1

[16] = test system: Pseudomonas aeruginosa NCTC 10490; experiment: Antibacterial activity, agar-dilution MIC, organism No. 16; details: Pseudomonas aeruginosa, NCTC10490; Organism No. 16, bouillon-agar; read-out: Minimum Inhibitory Concentration
How it was run: as §1

[17] = test system: Pseudomonas aeruginosa PAO 1; experiment: Antibacterial activity, agar-dilution MIC, organism No. 17; details: Pseudomonas aeruginosa, PAO1; Organism No. 17, bouillon-agar; read-out: Minimum Inhibitory Concentration
How it was run: as §1

[18] = test system: Proteus morganii IFO 3848; experiment: Antibacterial activity, agar-dilution MIC, organism No. 18; details: Morganella morganii, IFO3848; Organism No. 18, bouillon-agar; read-out: Minimum Inhibitory Concentration
How it was run: as §1

[19] = test system: Proteus mirabilis IFO 3849; experiment: Antibacterial activity, agar-dilution MIC, organism No. 19; details: Proteus mirabilis, IFO3849; Organism No. 19, bouillon-agar; read-out: Minimum Inhibitory Concentration
How it was run: as §1

[20] = test system: Proteus vulgaris OX-19; experiment: Antibacterial activity, agar-dilution MIC, organism No. 20; details: Proteus vulgaris, OX19; Organism No. 20, bouillon-agar; read-out: Minimum Inhibitory Concentration
How it was run: as §1

[21] = test system: Proteus vulgaris HX-19; experiment: Antibacterial activity, agar-dilution MIC, organism No. 21; details: Proteus vulgaris, HX19; Organism No. 21, bouillon-agar; read-out: Minimum Inhibitory Concentration
How it was run: as §1

[22] = test system: Proteus rettgeri IFO 3850; experiment: Antibacterial activity, agar-dilution MIC, organism No. 22; details: Providencia rettgeri, IFO3850; Organism No. 22, bouillon-agar; read-out: Minimum Inhibitory Concentration
How it was run: as §1

[23] = test system: Enterobacter aerogenes ATCC 13048; experiment: Antibacterial activity, agar-dilution MIC, organism No. 23; details: Klebsiella aerogenes, ATCC13048; Organism No. 23, bouillon-agar; read-out: Minimum Inhibitory Concentration
How it was run: as §1

[24] = test system: Enterobacter cloacae 963; experiment: Antibacterial activity, agar-dilution MIC, organism No. 24; details: Enterobacter cloacae, 963; Organism No. 24, bouillon-agar; read-out: Minimum Inhibitory Concentration
How it was run: as §1

[25] = test system: Micrococcus luteus ATCC 9341; experiment: Antibacterial activity, agar-dilution MIC, organism No. 25; details: Micrococcus luteus, ATCC9341; Organism No. 25, bouillon-agar; read-out: Minimum Inhibitory Concentration
How it was run: as §1

[26] = test system: Streptococcus pyogenes IFO 3340; experiment: Antibacterial activity, agar-dilution MIC, organism No. 26; details: Streptococcus pyogenes, IFO3340; Organism No. 26, bouillon-agar; read-out: Minimum Inhibitory Concentration
How it was run: as §1

[27] = test system: Streptococcus faecium IFO 3826; experiment: Antibacterial activity, agar-dilution MIC, organism No. 27; details: Enterococcus faecium, IFO3826; Organism No. 27, bouillon-agar; read-out: Minimum Inhibitory Concentration
How it was run: as §1

[28] = test system: Mycoplasma pneumoniae IID817; experiment: Antimycoplasmal activity, MIC by phenol red colour change, organism No. 28; details: Mycoplasma, IID817; Organism No. 28, PPLO broth + 1% glucose, 37° C.; read-out: Minimum Inhibitory Concentration (MIC)
Procedure: Mycoplasma pneumoniae IID817 was used as the test microorganism in a culture medium prepared by adding 1% of glucose to "PPLO broth (manufactured by Difco Co.) liquid culture medium" at 37° C. with phenol red as an indicator, thereby culturing the test microorganism.

[29] = test system: Candida albicans IAM 4905; experiment: Antifungal activity, agar-dilution MIC, organism No. 29; details: Candida albicans, IAM4905; Organism No. 29, bouillon-agar; read-out: Minimum Inhibitory Concentration
How it was run: as §1

[30] = test system: Aspergillus niger IFO 6342; experiment: Antifungal activity, agar-dilution MIC, organism No. 30; details: Aspergillus niger, IFO6342; Organism No. 30, bouillon-agar; read-out: Minimum Inhibitory Concentration
How it was run: as §1

Compound | MIC [1] | MIC [2] | MIC [3] | MIC [4] | MIC [5] | MIC [6] | MIC [7] | MIC [8] | MIC [9] | MIC [10] | MIC [11] | MIC [12] | MIC [13] | MIC [14] | MIC [15] | MIC [16] | MIC [17] | MIC [18] | MIC [19] | MIC [20] | other results
[C-]#[N+]C12CC3(/C=C/C(=O)OCC(=O)c4ccc(Br)cc4)OC3C1O2 (stereo not drawn) [Compound No. 4, p-bromophenacylβ-substituted acrylate] | 0.4 mg/L (≈ 1.03 µM) | 0.78 mg/L (≈ 2 µM) | 1.56 mg/L (≈ 4 µM) | 12.5 mg/L (≈ 32 µM) | 6.25 mg/L (≈ 16 µM) | < 0.05 mg/L | 6.25 mg/L (≈ 16 µM) | 6.25 mg/L (≈ 16 µM) | 3.13 mg/L (≈ 8.02 µM) | < 0.05 mg/L | < 0.05 mg/L | 3.13 mg/L (≈ 8.02 µM) | > 100 mg/L | 12.5 mg/L (≈ 32 µM) | > 100 mg/L | > 100 mg/L | > 100 mg/L | 100 mg/L (≈ 256 µM) | > 200 mg/L | 0.39 mg/L (≈ 1 µM) | MIC [21]: 0.39 mg/L (≈ 1 µM); MIC [22]: 100 mg/L (≈ 256 µM); MIC [23]: 100 mg/L (≈ 256 µM); MIC [24]: 0.2 mg/L (≈ 0.513 µM); MIC [25]: < 0.05 mg/L; MIC [26]: 6.25 mg/L (≈ 16 µM); MIC [27]: 12.5 mg/L (≈ 32 µM); MIC [28]: < 0.05 mg/L; MIC [29]: 1.56 mg/L (≈ 4 µM); MIC [30]: 6.25 mg/L (≈ 16 µM)
[C-]#[N+]C12CC3(/C=C/C(=O)NOCc4ccccc4)OC3C1O2 (stereo not drawn) [compound 82] | < 0.05 mg/L | 0.2 mg/L (≈ 0.67 µM) | < 0.05 mg/L | 0.78 mg/L (≈ 2.61 µM) | 12.5 mg/L (≈ 41.9 µM) | 12.5 mg/L (≈ 41.9 µM) | 0.39 mg/L (≈ 1.31 µM) | 6.25 mg/L (≈ 21 µM) | 0.78 mg/L (≈ 2.61 µM) | 0.78 mg/L (≈ 2.61 µM) | 0.78 mg/L (≈ 2.61 µM) | 0.78 mg/L (≈ 2.61 µM) | > 200 mg/L | 6.25 mg/L (≈ 21 µM) | > 200 mg/L | > 200 mg/L | > 200 mg/L | 0.78 mg/L (≈ 2.61 µM) | > 200 mg/L | 0.2 mg/L (≈ 0.67 µM) | MIC [21]: 0.1 mg/L (≈ 0.335 µM); MIC [22]: > 200 mg/L; MIC [23]: > 200 mg/L; MIC [24]: > 200 mg/L; MIC [25]: 12.5 mg/L (≈ 41.9 µM); MIC [26]: 1.56 mg/L (≈ 5.23 µM); MIC [27]: 1.56 mg/L (≈ 5.23 µM); MIC [28]: < 0.2 mg/L; MIC [29]: 0.39 mg/L (≈ 1.31 µM); MIC [30]: 3.13 mg/L (≈ 10.5 µM)
[C-]#[N+]C12CC3(/C=C/C(=O)OC)OC3C1O2 (stereo not drawn) [Compound No. 1] | 12.5 mg/L (≈ 60.3 µM) | 12.5 mg/L (≈ 60.3 µM) | 6.25 mg/L (≈ 30.2 µM) | 200 mg/L (≈ 965 µM) | 12.5 mg/L (≈ 60.3 µM) | 12.5 mg/L (≈ 60.3 µM) | 6.25 mg/L (≈ 30.2 µM) | 12.5 mg/L (≈ 60.3 µM) | 3.13 mg/L (≈ 15.1 µM) | 6.25 mg/L (≈ 30.2 µM) | 6.25 mg/L (≈ 30.2 µM) | 6.25 mg/L (≈ 30.2 µM) | 200 mg/L (≈ 965 µM) | 50 mg/L (≈ 241 µM) | > 200 mg/L | > 200 mg/L | > 200 mg/L | 6.25 mg/L (≈ 30.2 µM) | 6.25 mg/L (≈ 30.2 µM) | 6.25 mg/L (≈ 30.2 µM) | MIC [21]: 0.2 mg/L (≈ 0.965 µM); MIC [22]: 25 mg/L (≈ 121 µM); MIC [23]: > 200 mg/L; MIC [24]: 25 mg/L (≈ 121 µM); MIC [25]: 6.25 mg/L (≈ 30.2 µM); MIC [26]: 100 mg/L (≈ 483 µM); MIC [27]: 12.5 mg/L (≈ 60.3 µM); MIC [28]: < 0.2 mg/L; MIC [29]: 6.25 mg/L (≈ 30.2 µM); MIC [30]: 12.5 mg/L (≈ 60.3 µM)
